In data set [1] the test system is several mammalian cell types. As to conditions: energy-independent manner (Zhao et al., 2003); cited from earlier work.
Another data set can be described thus: in vivo. Here is the method:
Six weeks after induction of RAS, animals were similarly anesthetized, the degree of stenosis determined by angiography, and subjects were treated with PTRA or sham. Heating pads maintained the animal's body temperature by about 37° C. during surgery, and PTRA and stenting performed under fluoroscopic guidance, as previously described. In addition, ARAS subjects were treated with a continuous intravenous infusion of peptide 0.050 mg/kg or an equal volume of saline vehicle from 30 min before to 3.5 hrs after PTRA or sham. […] Urinary samples were collected before peptide infusion and 210 min after PTRA.
4 mL venous whole blood samples were collected from peptide-treated animals at baseline (immediately before peptide infusion), immediately before PTRA, and 30 and 180 min post-reperfusion. Venous blood were drawn using syringes into BD Vacutainer® PST™ Plasma Separation Tubes (lavender top) containing K2EDTA, 10 mL/tube. Tubes were gently inverted 8 times and kept in an ice water bath until centrifugation. Within an hour samples were centrifuged in a swing bucket centrifuge at 1000-1300 RCF (or […]) for 15 min at 4° C. Plasma were harvested from individual blood tubes, placed in a single polypropylene vials (or screw-cap tubes) and stored at approximately −80° C. until assay.
The plasma concentration of D-Arg-2′,6′-Dmt-Lys-Phe-NH2 was determined using a qualified LC/MS/MS assay in K2-EDTA pig plasma. The assay employed deuterium labeled d5-D-Arg-2′,6′-Dmt-Lys-Phe-NH2 as the analytical internal standard (IS). […] Positive (M+2H)^2+ ions for D-Arg-2′,6′-Dmt-Lys-Phe-NH2 and the IS (d5-D-Arg-2′,6′-Dmt-Lys-Phe-NH2) were monitored in MRM mode. Drug-to-IS peak area ratios for the standards were used to create a linear calibration curve ranging from 2.5 to 1000 ng/mL.
Peptide IV infusion started at 30 minutes prior to the PTRA procedure and continued for 210 minutes at 0.05 mg/kg/h.

In data set [2] the test system is inner mitochondrial membrane. As to conditions: cited from earlier work.
Another data set addresses mu-opioid receptor (Homo sapiens, UniProt P35372). The note with it: stated without data; assays cited; cited from earlier work.

These results are taken from patent US11420998B2, “Aromatic-cationic peptides and methods for using same” (Stealth Biotherapeutics Inc., priority 2011, dated 2022).

Square brackets hold non-standard residues; d marks the D form. Ends that are not written are not given here. Peptide text beside a SMILES is read from it. Dmt = Cc1cc(O)cc(C)c1C[C@H](N)C(=O)O

Chain of mu-opioid receptor (P35372 whole entry, species assumed): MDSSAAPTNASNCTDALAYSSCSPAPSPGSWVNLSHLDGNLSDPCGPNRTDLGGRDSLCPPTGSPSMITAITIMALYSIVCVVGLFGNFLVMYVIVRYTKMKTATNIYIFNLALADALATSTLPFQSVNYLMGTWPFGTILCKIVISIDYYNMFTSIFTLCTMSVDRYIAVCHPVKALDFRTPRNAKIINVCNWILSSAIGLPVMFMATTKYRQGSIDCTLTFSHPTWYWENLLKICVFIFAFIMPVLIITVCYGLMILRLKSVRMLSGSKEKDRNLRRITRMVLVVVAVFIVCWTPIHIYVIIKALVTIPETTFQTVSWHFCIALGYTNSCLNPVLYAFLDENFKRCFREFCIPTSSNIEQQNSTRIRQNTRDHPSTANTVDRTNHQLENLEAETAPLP

On to 2′,6′-Dmt-D-Arg-Phe-Lys-NH2, for which, in data set [1], the “penetration of the plasma membrane” value is “readily penetrates”.
In the case of `Cc1cc(O)cc(C)c1C[C@H](NC(=O)[C@H](N)CCCNC(=N)N)C(=O)N[C@@H](CCCCN)C(=O)N[C@@H](Cc1ccccc1)C(N)=O` [D-Arg-2′,6′-Dmt-Lys-Phe-NH2] (H-[dR][Dmt]KF-NH2), the “Mean peptide Concentration” value in “in vivo” (0 min from peptide infusion (−30 min from PTRA), 3.5-h IV infusion 0.05 mg/kg/h) is “BQL”; in “in vivo” (30 min from peptide infusion (time of PTRA), IV infusion 0.05 mg/kg/h) it was 100.6 ± 36.2 ng/mL; in the data set “in vivo” (30 min from peptide infusion (time of PTRA), IV infusion 0.05 mg/kg/h, listed as Peptide), 100.6 ng/mL. Also, in “in vivo” (pig, plasma, iv, 0.05 mg/kg/h, Mean peptide Concentration, 30 min from peptide infusion (time of PTRA), IV infusion 0.05 mg/kg/h), the level at 0.5 h was approximately 100 ng/mL. For the same compound, the level at 1 h in “in vivo” (pig, plasma, iv, 0.05 mg/kg/h, Mean peptide Concentration, 60 min from peptide infusion (30 min from PTRA), IV infusion 0.05 mg/kg/h) was 118 ± 23.7 ng/mL. The level at 1.5 h in the data set “in vivo” (pig, plasma, iv, 0.05 mg/kg/h, Mean peptide Concentration, 90 min from peptide infusion (60 min from PTRA), IV infusion 0.05 mg/kg/h) was determined as 125 ± 21.4 ng/mL. Moreover, the level at 3.5 h in “in vivo” (pig, plasma, iv, 0.05 mg/kg/h, Mean peptide Concentration, 210 min from peptide infusion (180 min from PTRA), IV infusion 0.05 mg/kg/h) came out at 111 ± 42 ng/mL. The “time to apparent steady state concentration” value in the data set “in vivo” (post start of IV infusion) fell in the range of 60 to 90 min. In addition, the “concentration in the inner mitochondrial membrane” value in data set [2] is 500-5000 fold.
Take F[dR]FK-NH2: the “mu-opioid receptor agonist activity” value at mu-opioid receptor is listed as “does not have mu-opioid receptor agonist activity”.
Take Tyr-D-Arg-Phe-Lys-NH2: on mu-opioid receptor, the “mu-opioid receptor agonist activity” value was “has mu-opioid receptor agonist activity”.
